The results in this text go back to patent US9546153B2, “Bicyclic heterocycle substituted pyridyl compounds useful as kinase modulators” (BRISTOL-MYERS SQUIBB COMPANY, priority 2012, dated 2017).

Like-named read-outs stand apart in the source and are kept apart here.

Experiment [1] deals with TLR2 induced IL-6 in peripheral blood mononuclear cells (PBMCs). Description: PBMC TLR2 Induced IL-6 Assay. Particulars: human PBMCs, 10 μg/ml lipoteichoic acid for 5 hours, IL-6 by ELISA; for EC50: EC50 determinations are indicated with an asterisk, read-out: Cell EC50 (asterisk); for IC50: value without asterisk, read-out: Cell IC50. Type of experiment: cell-based, human. Put shortly:
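IL-6 ELISA of supernatants after a 5 h challenge with the TLR2 agonist lipoteichoic acid (10 μg/ml). Before stimulation, human PBMCs (250000 cells/well; RPMI, 10% heat-inactivated FCS) received compound for 30 min at 37° C. Values given as IC50 or EC50.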
For orientation: An ELISA detects its analyte on a solid surface through an enzyme-linked reagent.

In a further experiment the target is IRAK4 (Homo sapiens (Human), UniProt Q9NWZ3). In words: IRAK4 Inhibition Assay. The class given is biochemical. Particulars: ATP 500 μM; IRAK4 0.6 nM; 60 min at room temperature. As to the method:
The assays were performed in U-bottom 384-well plates. […] The reaction was initiated by the combination of IRAK4 with substrates and test compounds. The reaction was incubated at room temperature for 60 min. and terminated by adding 45 μL of 35 mM EDTA to each sample. The reaction mixture was analyzed on the Caliper LABCHIP® 3000 (Caliper, Hopkinton, Mass.) by electrophoretic separation of the fluorescent substrate and phosphorylated product.

Sequence of IRAK4 (Q9NWZ3 whole entry, species assumed): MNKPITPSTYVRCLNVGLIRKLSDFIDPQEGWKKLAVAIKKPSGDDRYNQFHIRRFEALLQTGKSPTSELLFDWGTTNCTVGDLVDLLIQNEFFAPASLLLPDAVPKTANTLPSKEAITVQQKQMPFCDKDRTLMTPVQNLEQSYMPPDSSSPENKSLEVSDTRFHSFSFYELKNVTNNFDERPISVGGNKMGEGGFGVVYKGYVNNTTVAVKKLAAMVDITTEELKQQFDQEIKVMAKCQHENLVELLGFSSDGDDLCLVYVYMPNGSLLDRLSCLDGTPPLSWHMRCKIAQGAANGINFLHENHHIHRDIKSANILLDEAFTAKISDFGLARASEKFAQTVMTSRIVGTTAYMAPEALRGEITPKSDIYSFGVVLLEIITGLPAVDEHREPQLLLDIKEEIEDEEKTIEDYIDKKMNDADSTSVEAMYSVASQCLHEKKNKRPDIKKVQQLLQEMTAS

As a reminder, the EC50 is the concentration at which the effect is half-maximal. For orientation: IC50 means the point on the concentration scale where inhibition reaches its midpoint. For `CC(C)Nc1cc(Nc2ccc3ncsc3c2)ncc1C(=O)NC1CCC(=O)CC1` [Example 526, 6-(benzo[d]thiazol-6-ylamino)-4-(isopropylamino)-N-(4-oxocyclohexyl)nicotinamide], the EC50 in experiment [1] (Homo sapiens, PBMC, 5 h) was 0.423 µM. Also, at IRAK4, the IC50 came out at 0.0066 µM.
In the case of `CC(C)(O)[C@H](F)CNC(=O)c1cnc(Nc2ccc3cnccc3n2)cc1NC1CC1` [Example 79], the IC50 stood at 0.048 µM in experiment [1] (Homo sapiens, PBMC, 5 h) and 0.0056 µM at IRAK4.
For `CC(C)(O)[C@H](F)CNC(=O)c1cnc(Nc2ccn3nccc3c2)cc1NC1CC(F)C1` (stereo partly shown) [Example 296], the IC50 worked out at 0.384 µM in experiment [1] (Homo sapiens, PBMC, 5 h) and 0.0071 µM on IRAK4.
With `CC(C)Nc1cc(Nc2ccc3ncsc3c2)ncc1C(=O)NCC[C@@H](C)NC(=O)N1CCCC1` [Example 212], the IC50 worked out at 0.712 µM in experiment [1] (Homo sapiens, PBMC, 5 h) and 0.0069 µM at IRAK4.
`CC(CO)Nc1cc(Nc2nc3ccnn3cc2F)ncc1C(=O)NC[C@@H](F)C(C)(C)O` (stereo partly shown) [Example 423]: the IC50 in experiment [1] (Homo sapiens, PBMC, 5 h) turned out to be 0.461 µM; at IRAK4, 0.0065 µM.
For the compound `CC(C)Nc1cc(Nc2ccc3ncsc3c2)ncc1C(=O)N[C@H]1CC[C@H](NC(=O)c2cccnc2)CC1` [Example 202], the IC50 in experiment [1] (Homo sapiens, PBMC, 5 h) worked out at 0.156 µM; at IRAK4 it was 0.0024 µM.
For the compound `Cc1cc2nc(Nc3cc(NC4CCC(F)C4)c(C(=O)NC[C@@H](F)C(C)(C)O)cn3)ccn2n1` (stereo partly shown) [Example 267], the IC50 in experiment [1] (Homo sapiens, PBMC, 5 h) stood at 0.468 µM; at IRAK4, 0.0074 µM.
On to `CC(C)Nc1cc(Nc2ccc3ncsc3c2)ncc1C(=O)NC[C@@H](F)CO` [Example 5, (R)-6-(benzo[d]thiazol-6-ylamino)-N-(2-fluoro-3-hydroxypropyl)-4-(isopropylamino)nicotinamide], for which the IC50 was determined as 0.484 µM in experiment [1] (Homo sapiens, PBMC, 5 h) and 0.0096 µM at IRAK4.
As for `CC(C)(O)[C@H](F)CNC(=O)c1cnc(Nc2cc3nccnc3cc2F)cc1NC1CCC1` [Example 500], the EC50 in experiment [1] (Homo sapiens, PBMC, 5 h) came out at 0.228 µM. At IRAK4, the IC50 was determined as 0.0054 µM.
With `O=C(NC[C@@H](F)CO)c1cnc(Nc2ccc3ncsc3c2)cc1NC1CCCC1O` (stereo partly shown) [Example 337], the IC50 in experiment [1] (Homo sapiens, PBMC, 5 h) was 0.799 µM; on IRAK4, 0.0058 µM.
Consider `CC(C)(O)C1CCC(NC(=O)c2cnc(Nc3ccc4ncsc4c3)cc2NC2CCCOC2)CC1` (stereo not shown) [Example 490], for which the EC50 in experiment [1] (Homo sapiens, PBMC, 5 h) stood at 0.277 µM. Besides, the IC50 at IRAK4 was found to be 0.0042 µM.
Take `CC(C)(O)[C@H](F)CNC(=O)c1cnc(Nc2ccc3ncsc3c2)cc1N[C@H]1CCC(CCO)C1` (stereo partly shown) [Example 68]: the IC50 in experiment [1] is 0.231 µM; at IRAK4, 0.0047 µM.
With `CC(C)(O)[C@H](F)CNC(=O)c1cnc(Nc2ccc3ncsc3c2)cc1Nc1ccc(C(=O)NC2CC2)cc1` [Example 321], the IC50 was 1.15 µM in experiment [1] (Homo sapiens, PBMC, 5 h) and 0.0064 µM at IRAK4.
For `CNC(=O)[C@H]1CC[C@H](NC(=O)c2cnc(Nc3nc4ccnn4cc3F)cc2NC2CC2)CC1` [Example 508] the same measures were 10 µM and 0.0102 µM.
As for `CC(CO)Nc1cc(Nc2nc3scnc3cc2F)ncc1C(=O)NC[C@@H](F)C(C)(C)O` (stereo partly shown) [Example 459], the IC50 in experiment [1] is 0.141 µM; at IRAK4, 0.0034 µM.
Take `CC(C)(O)[C@H](F)CNC(=O)c1cnc(Nc2ccc3nccnc3c2)cc1NC1CCCCCC1` [Example 88]: the IC50 in experiment [1] (Homo sapiens, PBMC, 5 h) is 0.457 µM; at IRAK4, 0.009 µM.
Consider `CC(C)Nc1cc(Nc2ccc3nnccc3c2)ncc1C(=O)NC[C@@H](F)C(C)(C)O` [Example 119], for which the IC50 in experiment [1] (Homo sapiens, PBMC, 5 h) was 0.587 µM; at IRAK4, 0.0217 µM.
In the case of `CC(C)Nc1cc(Nc2ccc3ncsc3c2)ncc1C(=O)NC[C@@H](F)C(O)C(C)C` (stereo partly shown) [Example 13], the IC50 in experiment [1] worked out at 0.107 µM; on IRAK4, 0.003 µM.
`CC(C)(O)[C@H](F)CNC(=O)c1cnc(Nc2ncc3ncccc3n2)cc1NC1CCC(F)C1` (stereo partly shown) [Example 448]: the IC50 in experiment [1] was 0.047 µM; on IRAK4, 0.0165 µM.
For the compound `CC(C)Nc1cc(Nc2ccc3ncsc3c2)ncc1C(=O)N[C@H]1CC[C@H](C(=O)NC23CCC(O)(CC2)C3)CC1` [Example 220], the IC50 in experiment [1] (Homo sapiens, PBMC, 5 h) came out at 0.328 µM; on IRAK4, 0.0034 µM.
